Test results taken from patent publication US20110053897A1 (IRM LLC, priority 2009, published 2011).
Where two headings read alike, the source gives them in different places.

Molecular target: T1, Syk kinase (Homo sapiens, UniProt P43405)
T1 construct: purchased
Assay: Syk kinase inhibition, Caliper LabChip off-chip mobility-shift kinase assay
Type: biochemical
Settings: read-out: Syk Enzyme IC50
Procedure, shortened: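 Purified Syk pre-incubated 15 min with compound in 100 mM HEPES pH 7.5, 1 mM DTT, 10 mM MgCl2 or MnCl2, 0.002% Brij-35, then 1.5 μM fluorescein peptide and ATP at apparent KM added; 1–1.5 h at room temperature, 4% DMSO, EDTA stop. Microfluidic mobility-shift product/substrate conversion gave % inhibition; IC50 from 12-point series (10–0.00003 μM) by 4-parameter fit.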

| Compound | IC50 | IC50 (Caliper LabChip assay) |
| --- | --- | --- |
| Cc1ccc(-c2cc3cc[nH]c(=O)c3c(Nc3cnn(CCN4CCOCC4)c3)n2)cn1 [compound 126] | 100 nM |  |
| Cn1ccc2cc(Nc3cnccn3)nc(Nc3ccc(C(N)=O)cc3)c2c1=O [compound 468] | 101 nM |  |
| Cc1ccnc(Nc2cc3ccn(C)c(=O)c3c(Nc3ccc(S(C)(=O)=O)cc3)n2)c1 [compound 332] | 78 nM |  |
| CCN1CCN(c2n[nH]c3cc(Nc4nc(-c5cnc(OC)nc5)cc5cc[nH]c(=O)c45)ccc23)CC1 [compound 201] | 70 nM |  |
| COc1cncc(-c2cc3cc[nH]c(=O)c3c(Nc3ccc(C4CCN(C(=O)C5(N)CC5)CC4)c(C)c3)n2)n1 [compound 60] | 155 nM |  |
| Cc1ccnc(Nc2cc3ccn(C)c(=O)c3c(NC(C)(C)CO)n2)c1 [compound 499] | 31 nM |  |
| COc1cncc(-c2cc3cc[nH]c(=O)c3c(Nc3ccc(C4CCN(C(C)C(=O)NC5CC5)CC4)c(C)c3)n2)n1 (centres unmarked) [compound 121] | 183 nM |  |
| COc1cncc(-c2cc3cc[nH]c(=O)c3c(Nc3ccc(C4CCN(C(=O)N5CCOCC5)CC4)c(C)c3)n2)n1 [compound 115] | 181 nM |  |
| CCn1ccc2cc(Nc3cnccn3)nc(N[C@H]3CCC[C@H]3O)c2c1=O (racemic) [compound 354] | 18 nM |  |
| CCC(C)(C)Nc1nc(-c2cnc(N)nc2)cc2cc[nH]c(=O)c12 [compound 454] | 281 nM |  |
| COc1cncc(-c2cc3cc[nH]c(=O)c3c(Nc3ccc(C4CCN(C(C)C(=O)N(C)C)CC4)c(C)c3)n2)n1 (centres unmarked) [compound 170] | 6 nM |  |
| CCCc1cc2cc[nH]c(=O)c2c(Nc2ccc(N3CCO[C@H](C)C3)c(C)c2)n1 [compound 225] | 2300 nM |  |
| COc1cncc(-c2cc3cc[nH]c(=O)c3c(Nc3ccc(C4CCN(CC5CC5(F)F)CC4)c(C)c3)n2)n1 (centres unmarked) [compound 78] | 129 nM |  |
| COc1cncc(-c2cc3cc[nH]c(=O)c3c(Nc3ccc(C4CCN(C(=O)N5CCNC5=O)CC4)c(C)c3)n2)n1 [compound 114] | 174 nM |  |
| CCn1ccc2cc(Nc3cncnc3C)nc(NC(C)C)c2c1=O [compound 348] | 7440 nM |  |
| CCOCCOc1ccc(Nc2nc(Nc3cc(C)ccn3)cc3ccn(C)c(=O)c23)cc1 [compound 334] | 1720 nM |  |
| COc1cncc(-c2cc3cc[nH]c(=O)c3c(Nc3ccc(CCC(=O)N4CCOCC4)cc3)n2)n1 [compound 25] | 24 nM |  |
| Cc1cc(Nc2cc3ccn(CCO)c(=O)c3c(NC(C)(C)CO)n2)ncc1Cl [compound 497] | 111 nM |  |
| Cc1cc(Nc2nc(Nc3ccc(C(F)(F)F)cn3)cc3cc[nH]c(=O)c23)ccc1N1CCO[C@H](C)C1 [compound 583] | 8440 nM |  |

| Compound | IC50 | IC50 (Caliper LabChip assay) |
| --- | --- | --- |
| O=c1c2c(N[C@H]3CC[C@@H](O)CC3)nc(Nc3cnccn3)cc2ccn1CCO [compound 376] | 6 nM |  |
| COc1cncc(-c2cc3cc[nH]c(=O)c3c(Nc3ccc(C4CCN(C(=O)C(C)(C)N)CC4)c(C)c3)n2)n1 [compound 52] | 30 nM |  |
| CCN1CCN(CCCc2ccc(Nc3nc(-c4cncc(OC)n4)cc4cc[nH]c(=O)c34)cc2)CC1 [compound 41] | 42 nM |  |
| Cc1ccnc(Nc2cc3cc[nH]c(=O)c3c(NC3CNC3)n2)c1 [compound 300] | 1540 nM |  |
| COc1cncc(-c2cc3cc[nH]c(=O)c3c(Nc3ccc(C4CCN(C5CS(=O)(=O)C5)CC4)c(C)c3)n2)n1 [compound 42] | 26 nM |  |
| CCn1ccc2cc(Nc3cc(C)c(F)cn3)nc(N[C@H]3CC[C@@H](O)CC3)c2c1=O [compound 393] | 90 nM |  |
| CCn1ccc2cc(Nc3cc(C)ccn3)nc(N[C@H]3CC[C@@H](O)CC3)c2c1=O [compound 362] | 18 nM |  |
| CCc1ccnc(Nc2cc3cc[nH]c(=O)c3c(Nc3ccc(CCN4CCN(CC)CC4)cc3)n2)c1 [compound 546] | 88 nM |  |
| COc1cncc(-c2cc3cc[nH]c(=O)c3c(Nc3ccc(C4CCN(C(C)C(N)=O)CC4)c(C)c3)n2)n1 (centres unmarked) [compound 136] | 46 nM |  |
| CCN1CCN(CCc2ccc(Nc3nc(Nc4cc(C)ccn4)cc4cc[nH]c(=O)c34)cc2)CC1 [compound 585] | 81 nM |  |
| Cn1ccc2cc(Nc3cnccn3)nc(NC(C)(C)C)c2c1=O [compound 463] | 54 nM |  |
| Cc1ncc(-c2cc3cc[nH]c(=O)c3c(Nc3ccc([C@H]4CC[C@@H](N5CCOCC5)CC4)cc3)n2)cn1 [compound 11] | 652 nM |  |
| CCn1ccc2cc(Nc3cnccn3)nc(N[C@H]3CCC[C@@H]3O)c2c1=O [compound 423] | 52.4 nM |  |
| COCCNC(=O)c1ccc(Nc2nc(-c3cnc(C)nc3)cc3cc[nH]c(=O)c23)cc1 [compound 74] | 29 nM |  |
| COc1cncc(-c2cc3cc[nH]c(=O)c3c(Nc3ccc(C(=O)NCCN4CCCC4)cc3)n2)n1 [compound 82] | 14 nM |  |
| COc1cncc(-c2cc3cc[nH]c(=O)c3c(Nc3ccc(C4CCN(C(C)C(=O)NC(C)C)CC4)c(C)c3)n2)n1 (centres unmarked) [compound 175] | 144 nM |  |
| O=c1[nH]ccc2cc(CCCO)nc(Nc3ccc(N4CCOCC4)cc3)c12 [compound 247] | 45 nM |  |
| CCn1ccc2cc(Nc3cnccn3)nc(N[C@H]3CC[C@@H](O)CC3)c2c1=O [compound 356] | 10 nM |  |
| COc1cncc(-c2cc3cc[nH]c(=O)c3c(Nc3ccc(C4CCN(C(=O)C5CCOC5)CC4)c(C)c3)n2)n1 (centres unmarked) [compound 89] | 55 nM |  |

Further lines, results first:

| IC50 | IC50 (Caliper LabChip assay) | Compound |
| --- | --- | --- |
|  | 60 nM | Cc1ccnc(Nc2cc3ccn(C(C)C)c(=O)c3c(N[C@H]3CC[C@@H](CO)C3)n2)c1 [compound 987] |
| 962 nM |  | CCn1ccc2cc(Nc3cc(Cl)ccn3)nc(NCC(F)(F)F)c2c1=O [compound 592] |
|  | 60.4 nM | [2H]C([2H])([2H])n1ccc2cc(Nc3cc(Cl)ccn3)nc(N[C@@H](C)CO)c2c1=O [compound 1051] |
|  | 1050 nM | CCn1ccc2cc(Nc3cc(C)ccn3)nc(N[C@@H]3CCC[C@H]3O)c2c1=O [compound 939] |
|  | 41 nM | CCn1ccc2cc(Nc3nccc(O)n3)nc(NC[C@@H]3CC[C@@H](O)C3)c2c1=O [compound 959] |
|  | 20 nM | CC(C)(C)CNc1nc(Nc2cnccn2)cc2ccn(CCO)c(=O)c12 [compound 898] |
|  | 27 nM | N#CCn1ccc2cc(Nc3cnccn3)nc(NC3CCCC3)c2c1=O [compound 753] |
|  | 78 nM | COCCOc1cc(Nc2cc3ccn(CC(O)CO)c(=O)c3c(NC(C)(C)C)n2)ncn1 (centres unmarked) [compound 885] |
|  | 51 nM | CC(=O)c1ccnc(Nc2cc3ccn(CCO)c(=O)c3c(NC(C)(C)C)n2)c1 [compound 684] |
|  | 36 nM | CC(C)n1ccc2cc(Nc3cnccn3)nc(N[C@H]3CCC[C@H]3O)c2c1=O [compound 980] |
|  | 329 nM | COCCNC(=O)c1ccnc(Nc2cc3ccn(CCO)c(=O)c3c(NC(C)(C)C)n2)c1 [compound 682] |
|  | 70 nM | N#CCn1ccc2cc(-c3cnc(N)nc3)nc(NC3CCOCC3)c2c1=O [compound 751] |
|  | 18 nM | NC(=O)Cn1ccc2cc(Nc3cnccn3)nc(NC3CCCC3)c2c1=O [compound 752] |
|  | 51 nM | C#CCn1ccc2cc(Nc3cnccn3)nc(NC(C)(C)C)c2c1=O [compound 882] |
|  | 136 nM | CC(C)Nc1nc(-c2cnc(N)nc2)cc2ccn(CCO)c(=O)c12 [compound 892] |
|  | 109 nM | CC(C)(O)Cn1ccc2cc(Nc3cc(C(C)(C)O)ncn3)nc(NC(C)(C)C)c2c1=O [compound 731] |
|  | 71 nM | [2H]C([2H])([2H])n1ccc2cc(Nc3cc(Cl)ccn3)nc(NC(C)(C)CO)c2c1=O [compound 786] |
|  | 18 nM | CC(C)(C)Nc1nc(-c2cnc(N)nc2)cc2ccn(CCCCO)c(=O)c12 [compound 920] |

| IC50 | IC50 (Caliper LabChip assay) | Compound |
| --- | --- | --- |
|  | 301 nM | CC(C)(C)Nc1nc(Nc2cc(C(C)(C)CO)ccn2)cc2ccn(CCO)c(=O)c12 [compound 863] |
|  | 72 nM | CC(C)(C)Nc1nc(Nc2cc(-c3cccnc3)ccn2)cc2ccn(CCO)c(=O)c12 [compound 828] |
|  | 595 nM | CN(C)CCNC(=O)c1ccnc(Nc2cc3ccn(CCO)c(=O)c3c(NC(C)(C)C)n2)c1 [compound 683] |
|  | 66 nM | Nc1ncc(-c2cc3ccn(CC4(CO)COC4)c(=O)c3c(NC3CCCC3)n2)cn1 [compound 761] |
|  | 59 nM | CC(C)(C)Nc1nc(Nc2cc(-c3ccnc(N)n3)ccn2)cc2ccn(CCO)c(=O)c12 [compound 691] |
|  | 75 nM | CC(C)(C)Nc1nc(-c2cnc(N)c(CO)c2)cc2ccn(CCO)c(=O)c12 [compound 720] |
|  | 26 nM | Nc1ncc(-c2cc3ccn(CCO)c(=O)c3c(NC3(CO)CCC3)n2)cn1 [compound 903] |
|  | 9 nM | Cn1ccc2cc(Nc3nccc(O)n3)nc(NC3CCC3)c2c1=O [compound 800] |
|  | 121 nM | C=Cc1cc(Nc2cc3ccn(CCO)c(=O)c3c(NC(C)(C)C)n2)ncn1 [compound 618, 8-(tert-butylamino)-2-(2-hydroxyethyl)-6-(6-vinylpyrimidin-4-ylamino)-2,7-naphthyridin-1(2H)-one] |
|  | 51 nM | CCn1ccc2cc(Nc3cnccn3)nc(NC3CCC(C)(O)CC3)c2c1=O (centres unmarked) [compound 952] |
|  | < 1.01 nM | CCn1ccc2cc(-c3cnc(N)nc3)nc(NC3(CO)CCC3)c2c1=O [compound 905] |
|  | 2180 nM | CCOC(=O)c1cnn(-c2cc(Nc3cc4ccn(CCO)c(=O)c4c(NC(C)(C)C)n3)ncn2)c1 [compound 889] |
|  | 14 nM | CC(C)Nc1nc(Nc2cc(C(C)(C)O)ccn2)cc2ccn(CCO)c(=O)c12 [compound 705] |
|  | 96 nM | CC(C)(C)Nc1nc(Nc2cc(C3CCNCC3)ncn2)cc2ccn(CCO)c(=O)c12 [compound 638] |
|  | 14 nM | CCn1ccc2cc(-c3cnc(N)nc3)nc(NC(C)(C)CCO)c2c1=O [compound 1037] |
|  | 13 nM | CC1(Cn2ccc3cc(-c4cnc(N)nc4)nc(NC(C)(C)C)c3c2=O)COC1 [compound 924] |
|  | 32 nM | CC(C)n1ccc2cc(-c3cnc(N)nc3)nc(N[C@H]3CC[C@@H](O)CC3)c2c1=O [compound 1027] |
|  | 132 nM | O=C(Cn1ccc2cc(Nc3cnccn3)nc(N[C@H]3CC[C@@H](O)CC3)c2c1=O)N1CCOCC1 [compound 1007] |
